Test: Dynamic Vapor Sorption analysis
Type: physicochemical
Settings: humidity range ~21-70% Relative Humidity, Material recrystallized from isopropanol
Source text: The results of the XRPD analysis are shown both in Table I above and in FIG. 2. Dynamic Vapor Sorption analysis of this same materials was also done. […] (2 moles of water per molecule of the Compound would be 6.15% water).

## C[C@@H]1CN(Cc2ccc(F)cc2)[C@@H](C)CN1C(=O)c1cc2c(C(=O)C(=O)N(C)C)cn(C)c2cc1Cl.Cl [Compound, (2R-trans)-6-chloro-5-[[4-[(4-fluorophenyl)methyl]-2,5-dimethyl-1-piperazinyl]carbonyl]-N,N, 1-trimethyl-alpha-oxo-1H-indole-3-acetamide monohydrochloride]
  water content (water weight gained): 6-7%

Source: US20070032506A1, “CRYSTALLINE FORMS OF (2R-TRANS)-6-CHLORO-5[[4-[(4-FLUOROPHENYL)METHYL]-2,5-DIMETHYL-1-PIPERAZINYL]CARBONYL]-N,N, 1-TRIMETHYL-ALPHA-OXO-1H-INDOLE-3-ACETAMIDE MONOHYDROCHLORIDE” (priority 2005, published 2007)
